The test system of one data set is SK-MEL19. The data set can be described thus: Antiproliferative activity against human SK-MEL-19 cells incubated for 72 hrs by CellTiter-Glo luminescence assay. The following applies: SK-MEL19, 72 h. It counts as functional.
A further data set relates to MV4-11. The data set can be described thus: Antiproliferative activity against human MV4-11 cells incubated for 72 hrs by CellTiter-Glo luminescence assay. It counts as functional. The following applies: MV4-11, 72 h. Background: In ATP-based viability assays light output follows the ATP content of the culture.
The next data set concerns PC-3. The data set can be described thus: Antiproliferative activity against human PC3 cells incubated for 72 hrs by CellTiter-Glo luminescence assay. It counts as functional. The following applies: PC-3, 72 h.
The next data set deals with DU-145. The data set can be described thus: Antiproliferative activity against human DU145 cells incubated for 72 hrs by CellTiter-Glo luminescence assay. The following applies: DU-145, 72 h. It counts as functional.
Another data set deals with MIA PaCa-2. The data set can be described thus: Antiproliferative activity against human MIAPaCa2 cells incubated for 72 hrs by CellTiter-Glo luminescence assay. It counts as functional. The following applies: MIA PaCa-2, 72 h.
In another data set the test system is JeKo-1. Nature of the data set: Antiproliferative activity against human JeKo1 cells incubated for 72 hrs by CellTiter-Glo luminescence assay. It counts as functional. The following applies: JeKo-1, 72 h.
The next data set deals with U-87 MG. The data set can be described thus: Antiproliferative activity against human U87MG cells incubated for 72 hrs by CellTiter-Glo luminescence assay. It counts as functional, U-87MG ATCC.
Another data set has as its system HCT-116. Nature of the data set: Antiproliferative activity against human HCT116 cells incubated for 72 hrs by CellTiter-Glo luminescence assay. It counts as functional. The following applies: HCT-116, 72 h.
A further data set relates to MDA-MB-231. Nature of the data set: Antiproliferative activity against human MDA-MB-231 cells incubated for 72 hrs by CellTiter-Glo luminescence assay. It counts as functional. The following applies: MDA-MB-231, 72 h.
The next data set relates to T47D. Nature of the data set: Antiproliferative activity against human T47D cells incubated for 72 hrs by CellTiter-Glo luminescence assay. It counts as functional.
The test system of another data set is Raji. The data set can be described thus: Antiproliferative activity against human Raji cells incubated for 72 hrs by CellTiter-Glo luminescence assay. It counts as functional.
In data set [1] the target is T1, Receptor-type tyrosine-protein kinase FLT3 (Homo sapiens, UniProt P36888).
T1 sequence (P36888 whole entry): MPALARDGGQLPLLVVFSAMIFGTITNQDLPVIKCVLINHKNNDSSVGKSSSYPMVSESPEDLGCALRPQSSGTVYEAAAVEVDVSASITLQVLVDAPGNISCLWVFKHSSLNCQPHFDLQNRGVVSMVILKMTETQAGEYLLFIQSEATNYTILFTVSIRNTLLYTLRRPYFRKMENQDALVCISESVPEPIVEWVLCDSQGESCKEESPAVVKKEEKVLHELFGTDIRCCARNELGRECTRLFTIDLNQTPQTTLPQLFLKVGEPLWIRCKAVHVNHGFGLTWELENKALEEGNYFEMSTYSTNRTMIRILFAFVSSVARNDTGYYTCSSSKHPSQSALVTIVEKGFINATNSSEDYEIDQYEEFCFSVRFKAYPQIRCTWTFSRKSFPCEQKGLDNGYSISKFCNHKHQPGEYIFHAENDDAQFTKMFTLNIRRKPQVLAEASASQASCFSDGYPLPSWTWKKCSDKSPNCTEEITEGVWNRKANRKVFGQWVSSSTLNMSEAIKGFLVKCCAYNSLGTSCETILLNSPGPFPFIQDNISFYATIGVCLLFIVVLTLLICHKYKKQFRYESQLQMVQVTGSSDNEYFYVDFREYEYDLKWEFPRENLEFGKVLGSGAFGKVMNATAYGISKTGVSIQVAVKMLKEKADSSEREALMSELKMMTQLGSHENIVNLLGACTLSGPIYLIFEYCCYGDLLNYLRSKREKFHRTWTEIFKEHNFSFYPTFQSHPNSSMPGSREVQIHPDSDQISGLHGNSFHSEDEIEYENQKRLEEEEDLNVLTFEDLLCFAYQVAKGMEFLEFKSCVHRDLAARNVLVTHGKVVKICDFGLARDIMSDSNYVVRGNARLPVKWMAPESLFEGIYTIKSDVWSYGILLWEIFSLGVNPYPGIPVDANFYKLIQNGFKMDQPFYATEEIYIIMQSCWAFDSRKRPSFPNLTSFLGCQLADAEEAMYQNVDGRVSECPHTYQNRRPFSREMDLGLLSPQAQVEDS
Nature of the data set: Inhibition of human FLT3 using EAIYAAPFAKKK as substrate incubated for 60 mins by fluorescence based assay.

Data set [2] has as its target T2, Serine/threonine-protein kinase pim-1 (Homo sapiens, UniProt P11309). Nature of the data set: Inhibition of PIM1 in human NCI-H1299 cells assessed as reduction in BAD phosphorylation at Ser-112 residue incubated for 4 hrs by ELISA. It counts as cell-based. The following applies: read-out: EC50. For orientation: ELISA stands for enzyme-linked immunosorbent assay.

The target of data set [3] is Serine/threonine-protein kinase pim-3 (Homo sapiens, UniProt Q86V86). The data set can be described thus: Inhibition of N-terminal 6-His tagged human recombinant PIM3 using PIM tide (ARKRRRHPSGPPTA) as substrate incubated for 1 hr by fluorescence based assay.
The target of data set [4] is Serine/threonine-protein kinase pim-2 (Homo sapiens, UniProt Q9P1W9). Nature of the data set: Inhibition of His tagged human recombinant PIM2 using PIM tide (ARKRRRHPSGPPTA) as substrate incubated for 1 hr by fluorescence based assay.
The target of data set [5] is T2, Serine/threonine-protein kinase pim-1. Nature of the data set: Inhibition of His tagged human recombinant PIM1 using PIM tide (ARKRRRHPSGPPTA) as substrate incubated for 1 hr by fluorescence based assay.
The nature of data set [6]: Clearance in iv dosed Balb/c mouse administered as single dose measured after 0.08 to 4 hrs by HPLC/MS analysis. It counts as ADME, organism-based. The following applies: in vivo.
Data set [7] is described as follows: Clearance in iv dosed Balb/c mouse administered as single dose measured after 0.08 to 4 hrs by HPLC/MS analysis relative to hepatic blood flow. It counts as ADME, organism-based. The following applies: in vivo.
Data set [8] deals with Voltage-gated inwardly rectifying potassium channel KCNH2 (Homo sapiens, UniProt Q12809).

Molecules are shown by their SMILES.

The term GI50 denotes the concentration at which growth is held to half of that of the control. A higher GI50 goes with lower sensitivity of the cells. The term IC50 denotes the concentration at which inhibition is half-maximal. As a reminder, the EC50 is the concentration that produces a half-maximal response. The clearance is a measure of how efficiently the substance is removed, as volume per time.

For `CC(=O)O[C@@]12CO[C@@H]1C[C@H](O)[C@@]1(C)C(=O)[C@H](O)C3=C(C)[C@@H](OC(=O)[C@H](O)[C@@H](NC(=O)OC(C)(C)C)c4ccccc4)C[C@@](O)([C@@H](OC(=O)c4ccccc4)[C@H]21)C3(C)C` [DOCETAXEL ANHYDROUS], the GI50 with SK-MEL19 is 0.002 µM; in the data set with MV4-11 it was 0.0005 µM.
In the data set with PC-3, `O=C(CCCCCCC(=O)Nc1ccccc1)NO` [VORINOSTAT] showed a GI50 of 5 µM.
Turning to `CS(=O)(=O)CCNCc1ccc(-c2ccc3ncnc(Nc4ccc(OCc5cccc(F)c5)c(Cl)c4)c3c2)o1` [LAPATINIB], the GI50 in the data set with DU-145 was determined as 20 µM; with MIA PaCa-2, 10 µM; in the data set on SK-MEL19, 5 µM; in the data set with JeKo-1, 5 µM; in the data set on U-87 MG it was 10 µM; in the data set on HCT-116, 20 µM. The GI50 with MDA-MB-231 was determined as 20 µM; in the data set with T47D, 40 µM; with MV4-11, 10 µM.
With `CC(C)C[C@H](NC(=O)[C@H](Cc1ccccc1)NC(=O)c1cnccn1)B(O)O` [BORTEZOMIB], in the data set with PC-3, the GI50 came to 0.04 µM. This lies in the double-digit nanomolar range.
With `CC(=O)c1c(C)c2cnc(Nc3ccc(N4CCNCC4)cn3)nc2n(C2CCCC2)c1=O` [PALBOCICLIB], the GI50 in the data set on Raji, in the data set with SK-MEL19, in the data set with JeKo-1 and with MDA-MB-231 was 30 µM throughout.
On to `CN1CCOc2c1cnn1c(-c3ccc4c(F)ccc(NCC5(F)CCNCC5)c4n3)nnc21`, for which the half-inhibitory concentration (IC50) in [1] was 3.97 µM; in [3], 0.014 µM; in data set [4] it was 3.01 µM; in [5], 0.03 µM; in [8] it was more than 20 µM. In addition, the EC50 in [2] was determined as 0.283 µM. In data set [6], this compound gave a clearance of 9.33 mL/min/kg. The CLH in [7] is reported as less than 30%.
Take `CN1CCOc2c1cnn1c(-c3ccc4c(F)c(F)cc(NCC5(F)CCNCC5)c4n3)nnc21`: the concentration for half-maximal inhibition (IC50) in data set [1] is 6.32 µM; in data set [3], 0.012 µM; in data set [4], 3.59 µM; in data set [5] it was 0.018 µM; in data set [8], more than 20 µM. Besides, the EC50 in data set [2] came out at 0.155 µM. In data set [6], this compound gave a clearance of 3.83 mL/min/kg. The CLH in [7] is recorded as less than 30%.
For the compound `CN1CCOc2c1cnn1c(-c3ccc4cccc(NC5CCCCC5)c4n3)nnc21`, the half-inhibitory concentration (IC50) in data set [1] is more than 10 µM; in data set [3], 0.3 µM; in [4], 3.33 µM; in [5], 0.032 µM; in data set [8] it was more than 20 µM. The concentration giving a half-maximal response (EC50) in data set [2] came to 0.22 µM. Also, the clearance in [6] was 23.7 mL/min/kg. In data set [7], the CLH is given as less than 30%.
As for `CS(=O)(=O)N1CCN(Cc2cc3nc(-c4cccc5[nH]ncc45)nc(N4CCOCC4)c3s2)CC1` [PICTILISIB], the GI50 is 3 µM with PC-3; 12 µM with MIA PaCa-2; 6 µM in the data set on SK-MEL19; 5 µM in the data set on JeKo-1; 6 µM with U-87 MG; 12 µM in the data set on MDA-MB-231. The GI50 in the data set on T47D and in the data set with MV4-11 was 3 µM throughout.

For the origin of these results see ChEMBL document CHEMBL4340512, “Discovery of novel triazolo[4,3-b]pyridazin-3-yl-quinoline derivatives as PIM inhibitors” (Eur J Med Chem, 2019).
